In patent US20140088073A1, “METHODS FOR DETERMINING WHETHER A PATIENT SHOULD BE ADMINISTERED A DRUG THAT INHIBITS CHOLESTEROL ABSORPTION” (Boston Heart Diagnostics Corporation, priority 2012, published 2014):

Columns and labels:
[1] = tested on: hypercholesterolemic subjects; assay: EASE study post hoc analysis: plasma lipids, apolipoproteins and hs-CRP, ezetimibe add-on to ongoing statin therapy; type: in vivo, human; conditions: for reductions from baseline in LDL-C / mean percent LDL-C reduction / percent LDL-C reduction from baseline: 6 weeks; for reductions from baseline in LDL-C: unadjusted data; for mean percent LDL-C reduction / percent change from baseline in LDL-C / percent change from baseline in non-HDL-C / percent change from baseline in total C/HDL-C: ezetimibe add-on; for Triglyceride / Apo A1 / Apo B / HDL-C / Non-HDL-C / Total C / Total C/HDL-C ratio / LDL-C / hs-CRP: baseline during ongoing statin therapy, by statin type; for Apo A1 / Apo B / HDL-C / Non-HDL-C / Total C / Total C/HDL-C ratio / LDL-C: mean ± SD; for LDL-C: Friedewald formula; for hs-CRP: median ± robust SD
Description: (§1) Briefly, hypercholesterolemic subjects (n=874) on statins received ezetimibe 10 mg/day. Plasma lipids, lathosterol, and β-sitosterol were measured at baseline and on treatment.
(§2) This study included subjects from the ezetimibe add-on to statin arm of the EASE study (http://clinicaltrials.gov identifier NCT00092586; Study Protocol 040). Details of the study design and outcomes have been published previously. (See Pearson T A, Denke M A, McBride P E, Battisti W P, Brady W E, Palmisano J. A community-based, randomized trial of ezetimibe added to statin therapy to attain NCEP ATP III goals for LDL cholesterol in hypercholesterolemic patients: the ezetimibe add-on to statin for effectiveness (EASE) trial. Mayo Clin Proc 2005; 80:587-95; Pearson T A, Denke M A, McBride P E, et al. Effectiveness of ezetimibe added to ongoing statin therapy in modifying lipid profiles and low-density lipoprotein cholesterol goal attainment in patients of different races and ethnicities: a substudy of the Ezetimibe add-on to statin for effectiveness trial. Mayo Clin Proc 2006; 81:1177-85.)
(§3) Briefly, the EASE study was a multicenter, randomized, double-blind, placebo-controlled, 6-week parallel-group study. Participants with hypercholesterolemia were recruited from community based practices across the United States. Inclusion criteria were: 1) age ≧18 years, 2) on a stable, approved dose of any statin, 3) following a cholesterol-lowering diet for ≧6 weeks before study entry, and 4) LDL-C levels above risk-based NCEP ATP III targets. Subjects receiving lipid-altering agents other than statins during the 6 weeks before screening were excluded. Patients were randomized to receive ezetimibe 10 mg/day or placebo plus their current statin therapy and dose for 6 weeks. Statin type and dose were maintained throughout the study. The research protocol was approved by the investigational review boards at each site, and all participants provided written informed consent prior to study start.
(§4) For this current post hoc analysis, we assessed subjects who were randomized into the ezetimibe 10 mg plus statin arm of the EASE study (n=1940). Of the 1124 subjects with samples available for measurement, only those who had complete sterol and lipid data at baseline and at the end of the 6-week study were included in this analysis (n=874). The mean age and other baseline characteristics of those included and excluded from this analysis were similar. Comparison of subjects was based on statin type or potency (low, medium, high) subgroups. The low potency statin group (predicted LDL-C reduction of ˜20-30%) included subjects receiving simvastatin ≦10 mg/day, lovastatin ≦20 mg/day, pravastatin ≦20 mg/day, and fluvastatin ≦40 mg/day. The medium potency statin group (predicted LDL-C reduction of ˜31-45%) included subjects receiving simvastatin >10 to ≦40 mg/day, atorvastatin ≦20 mg/day, lovastatin >20 to 80 mg/day, pravastatin >20 to 80 mg/day, and fluvastatin >40 to 80 mg/day.
(§5) Plasma total cholesterol (total C), high-density lipoprotein cholesterol (HDL-C), and triglycerides (TG) were analyzed using standardized methods at the central laboratory of the trial (PPD Global Central Labs, Highland Heights, Kentucky, USA). LDL-C was calculated using the Friedewald formula. (See Friedewald W T, Levy R I, Fredrickson D S. Estimation of the concentration of low-density lipoprotein cholesterol in plasma, without use of the preparative ultracentrifuge. Clin Chem 1972; 18:499-502.) Non-HDL-C was calculated by subtracting HDL-C from total C. Apolipoprotein (Apo) A-I, Apo B, and high-sensitivity C-reactive protein (hs-CRP) were measured by automated immunoassays at the central laboratory. Within and between coefficients for all assays were <10%. Plasma lathosterol and β-sitosterol were quantified by gas chromatography mass spectrometry after lipid extraction as previously described in Sudhop T, Lutjohann D, Kodal A, et al. Inhibition of intestinal cholesterol absorption by ezetimibe in humans. […]

[2] = tested on: hypercholesterolemic subjects; assay: EASE study post hoc analysis: plasma lathosterol and β-sitosterol by gas chromatography mass spectrometry; type: in vivo, human; conditions: for B-sitosterol / B-sitosterol/Lathosterol / B-sitosterol/Total C / Lathosterol / Lathosterol/Total C: baseline during ongoing statin therapy, by statin type, mean ± SD
Description: as §1, §2, §3, §4, §5

[3] = literature; cited from earlier work
[4] = tested on: patients with coronary heart disease; conditions: comparing sterol/cholesterol ratios; previous studies; cited from earlier work
[5] = subjects with baseline sitosterol/lathosterol above the median
[6] = subjects with baseline sitosterol/lathosterol ≦ the median
[7] = overall study population, ezetimibe add-on to statin, 6 weeks

## O=C1[C@H](CC[C@H](O)c2ccc(F)cc2)[C@@H](c2ccc(O)cc2)N1c1ccc(F)cc1 [ezetimibe]
[1]; addition of ezetimibe to any statin
  LDL-C lowered by: 23-26%
[1]; ezetimibe 10 mg/day added to ongoing high potency statin
  reductions from baseline in LDL-C: −29.1%
[1]; ezetimibe 10 mg/day added to ongoing low potency statin
  reductions from baseline in LDL-C: −22.7%
[1]; ezetimibe 10 mg/day added to ongoing medium potency statin
  reductions from baseline in LDL-C: −25.0%
[1]; high potency statin group
  mean percent LDL-C reduction: 29.1%
[1]; low potency statin group
  mean percent LDL-C reduction: 22.7%
[1]; medium potency statin group
  mean percent LDL-C reduction: 25.0%
[1]; [5]
  percent change from baseline in LDL-C: −26.7%
  percent change from baseline in non-HDL-C: −24.2%
  percent change from baseline in total C/HDL-C: −19.0%
[1]; [6]
  percent change from baseline in LDL-C: −24.1%
  percent change from baseline in non-HDL-C: −21.6%
  percent change from baseline in total C/HDL-C: −17.0%
[1]; ezetimibe combination with ongoing atorvastatin
  percent LDL-C reduction from baseline: 26.4%
[1]; ezetimibe combination with ongoing lovastatin or fluvastatin
  percent LDL-C reduction from baseline: 24.1%
[1]; ezetimibe combination with ongoing pravastatin
  percent LDL-C reduction from baseline: 23.1%
[1]; ezetimibe combination with ongoing simvastatin
  percent LDL-C reduction from baseline: 26.4%
[2]; [7]
  mean lathosterol levels increased by: 52%
  mean lathosterol/cholesterol ratio increased by: 83.8%
  mean β-sitosterol levels decreased by: 47.4%
  mean β-sitosterol/cholesterol ratio decreased by: 36.3%
  overall percent change in the mean β-sitosterol/lathosterol ratio: −52.4%
[3]
  reduces LDL-C levels by: 15-20%

## CC[C@H](C)C(=O)O[C@H]1C[C@H](O)C=C2C=C[C@H](C)[C@H](CC[C@@H](O)C[C@@H](O)CC(=O)O)[C@H]21 [Pravastatin, pravastatin]
[1]
  Triglyceride: 155.0 ± 80.0 mg/dL
  Apo A1: 160.5 ± 28.2 mg/dL
  Apo B: 131.3 ± 26.0 mg/dL
  HDL-C: 48.6 ± 12.0 mg/dL
  Non-HDL-C: 166.9 ± 34.5 mg/dL
  Total C: 215.5 ± 34.9 mg/dL
  Total C/HDL-C ratio: 4.65 ± 1.25
  LDL-C: 133.1 ± 28.3 mg/dL
  hs-CRP: 2.70 ± 4.09 mg/L
[2]
  B-sitosterol: 4.72 ± 2.51 µmol/L
  B-sitosterol/Lathosterol: 2.11 ± 2.10
  B-sitosterol/Total C: 0.86 ± 0.48 μmol/mmol
  Lathosterol: 3.08 ± 1.69 µmol/L
  Lathosterol/Total C: 0.55 ± 0.26 μmol/mmol

## CCC(C)(C)C(=O)O[C@H]1C[C@@H](C)C=C2C=C[C@H](C)[C@H](CC[C@@H]3C[C@@H](O)CC(=O)O3)[C@H]21 [Simvastatin, simvastatin]
[1]
  Triglyceride: 149.0 ± 88.4 mg/dL
  Apo A1: 157.7 ± 26.3 mg/dL
  Apo B: 125.8 ± 23.2 mg/dL
  HDL-C: 48.2 ± 11.8 mg/dL
  Non-HDL-C: 157.4 ± 30.2 mg/dL
  Total C: 205.5 ± 31.4 mg/dL
  Total C/HDL-C ratio: 4.46 ± 1.10
  LDL-C: 124.3 ± 26.1 mg/dL
  hs-CRP: 2.50 ± 3.81 mg/L
[2]
  B-sitosterol: 4.33 ± 2.17 µmol/L
  B-sitosterol/Total C: 0.82 ± 0.40 μmol/mmol
  Lathosterol: 2.47 ± 1.68 µmol/L
  Lathosterol/Total C: 0.46 ± 0.28 μmol/mmol

## CC(C)c1c(C(=O)Nc2ccccc2)c(-c2ccccc2)c(-c2ccc(F)cc2)n1CC[C@@H](O)C[C@@H](O)CC(=O)O [Atorvastatin, atorvastatin]
[1]
  Triglyceride: 149.0 ± 85.6 mg/dL
  Apo A1: 156.3 ± 26.1 mg/dL
  Apo B: 129.2 ± 25.4 mg/dL
  HDL-C: 47.8 ± 10.7 mg/dL
  Non-HDL-C: 162.0 ± 33.6 mg/dL
  Total C: 209.7 ± 35.4 mg/dL
  Total C/HDL-C ratio: 4.55 ± 1.05
  LDL-C: 130.0 ± 30.9 mg/dL
  hs-CRP: 2.40 ± 3.53 mg/L
[2]
  B-sitosterol: 5.40 ± 2.93 µmol/L
  B-sitosterol/Lathosterol: 4.22 ± 4.39
  B-sitosterol/Total C: 1.01 ± 0.57 μmol/mmol
  Lathosterol: 2.20 ± 1.70 µmol/L
  Lathosterol/Total C: 0.39 ± 0.26 μmol/mmol
[4]
  increase of plant sterols: 82%
  reduction of precursor sterols: −50%
